The source of these data is ChEMBL document CHEMBL3352577, “A simple and widely applicable hit validation strategy for protein-protein interaction inhibitors based on a quantitative ligand displacement assay” (Bioorg Med Chem Lett, 2014).

Test [1] concerns the target T1, Bcl-2-like protein 1 (Homo sapiens, UniProt Q07817). The test is described as follows: Displacement of F-bid from human recombinant N-terminal His-tagged Bcl-xL (1 to 209) expressed in Escherichia coli BL21(DE3) after 2 hrs by fluorescence polarization assay. In general terms: Fluorescence polarisation rises when a labelled molecule tumbles more slowly, as on binding a larger partner.

Test [2] deals with T2, Induced myeloid leukemia cell differentiation protein Mcl-1 (Homo sapiens, UniProt Q07820). The test is described as follows: Displacement of F-bid from human recombinant N-terminal His-tagged Mcl-1 (1 to 319) expressed in Escherichia coli BL21(DE3) after 2 hrs by fluorescence polarization assay.
Test [3] addresses T1, Bcl-2-like protein 1. The experiment in a line: Displacement of F-bid from human recombinant N-terminal His-tagged Bcl-xL (1 to 209) expressed in Escherichia coli BL21(DE3) after 30 mins by TR-FRET assay. A general note: TR-FRET usually uses a lanthanide donor and a delayed reading to cut background.
Test [4] concerns the target T1, Bcl-2-like protein 1. The test is described as follows: Displacement of F-bid from human recombinant N-terminal His-tagged Bcl-xL (1 to 209) expressed in Escherichia coli BL21(DE3) after 120 mins by TR-FRET assay.
Test [5] has as its target T1, Bcl-2-like protein 1. The experiment in a line: Reversible inhibition of human recombinant N-terminal His-tagged Bcl-xL (1 to 209) expressed in Escherichia coli BL21(DE3) after 30 to 120 mins by TR-FRET assay in presence of F-bid.
Test [6] concerns the target T2, Induced myeloid leukemia cell differentiation protein Mcl-1. The test is described as follows: Displacement of F-bid from human recombinant N-terminal His-tagged Mcl-1 (1 to 319) expressed in Escherichia coli BL21(DE3) after 120 mins by TR-FRET assay.

T2 sequence (Q07820 whole entry): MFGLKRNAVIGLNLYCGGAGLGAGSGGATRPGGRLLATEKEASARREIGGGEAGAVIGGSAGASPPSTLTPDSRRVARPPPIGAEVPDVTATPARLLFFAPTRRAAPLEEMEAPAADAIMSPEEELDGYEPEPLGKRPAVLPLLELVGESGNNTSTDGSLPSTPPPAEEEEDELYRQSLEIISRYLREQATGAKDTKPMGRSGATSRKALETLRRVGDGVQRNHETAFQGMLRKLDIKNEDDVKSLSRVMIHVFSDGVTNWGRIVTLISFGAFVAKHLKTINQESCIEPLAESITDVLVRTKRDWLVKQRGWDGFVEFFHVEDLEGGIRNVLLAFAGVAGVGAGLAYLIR
T1 sequence (Q07817 whole entry): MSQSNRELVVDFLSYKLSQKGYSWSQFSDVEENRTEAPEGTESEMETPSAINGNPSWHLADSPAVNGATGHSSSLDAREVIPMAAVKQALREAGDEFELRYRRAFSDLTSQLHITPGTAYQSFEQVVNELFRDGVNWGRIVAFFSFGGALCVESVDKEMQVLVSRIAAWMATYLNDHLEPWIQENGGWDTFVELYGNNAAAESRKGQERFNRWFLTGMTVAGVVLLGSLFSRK

As a reminder, the Ki is a measure of affinity in units of concentration, obtained from inhibition or displacement. As a reminder, the IC50 is the point on the concentration scale where inhibition reaches its midpoint. For the compound `O=C(CC(Sc1ccc(Cl)cc1)C(=O)O)c1ccc(C2CCCCC2)cc1` (centres undefined), the Ki in test [1] is 4.7 µM; in test [2] it was 14 µM; in test [4] it was 12 µM; in test [5], 13 µM; in test [6] it was 12 µM. Besides, the results for the IC50 in test [3] and in test [4] were 18 µM and 19 µM, respectively.
Consider `O=C(CC(Cc1ccc(Cl)cc1)C(=O)O)c1ccc(C2CCCCC2)cc1` (centres undefined), for which the values for the Ki in test [5] and in test [6] were 9 µM and 20 µM, respectively.
